Experimental findings from PubChem BioAssay AID624090 (The Scripps Research Institute Molecular Screening Center, 2012) are described below.

The structures appear in SMILES notation. Active and inactive are the calls of the source.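 Rule for the calls: active = AmpC beta-lactamase inhibition with IC50 of 10 µM or lower; inactive = the rest.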 Where only a bound is given, the exact number is not on record here.

For the test, the target named is AmpC beta-lactamase (Escherichia coli). The test is described as follows: AmpC inhibition by nonselective VIM-2 inhibitor candidates, late-stage follow-up, selectivity assay for nonselective VIM-2 inhibitor project, biochemical, absorbance, probe candidates and analogs (AID 624090). The settings on record: recombinant AmpC, nitrocefin hydrolysis.

Turning to `CN1CCN(NC(=O)CN2C(=O)/C(=C/c3c(Cl)ccc(Cl)c3Cl)SC2=S)CC1`, the IC50 was > 60 µM (inactive).
Turning to `CN1CCN(NC(=O)CN2C(=O)/C(=C/c3c(Cl)cccc3Cl)SC2=S)CC1`, the IC50 was > 60 µM (inactive).
